Laboratory results: PMC3968170 (PLoS Pathogens, 2014)

Assays:
HitS ICD = molecular target: T1, HitS ICD (Bacillus anthracis, UniProt Q81RT2); settings: 5 uM kinase, 37 C, 30 min; labelled compound
T1 construct: gene GBAA_1956

HssS ICD = molecular target: T2, HssS ICD (Bacillus anthracis, UniProt A0AAC8N8V0); settings: 5 uM kinase, 37 C, 30 min; labelled compound
T2 construct: gene BA_3260
T2 sequence (A0AAC8N8V0 189-458 limits assumed): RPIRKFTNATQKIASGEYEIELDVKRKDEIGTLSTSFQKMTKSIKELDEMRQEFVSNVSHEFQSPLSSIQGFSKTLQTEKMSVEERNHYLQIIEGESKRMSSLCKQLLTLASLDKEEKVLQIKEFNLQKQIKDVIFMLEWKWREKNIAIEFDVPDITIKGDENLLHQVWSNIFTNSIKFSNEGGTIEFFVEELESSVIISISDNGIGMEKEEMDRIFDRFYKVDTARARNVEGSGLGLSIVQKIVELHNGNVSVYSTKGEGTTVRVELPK

T1 sequence (Q81RT2 74-351 limits assumed): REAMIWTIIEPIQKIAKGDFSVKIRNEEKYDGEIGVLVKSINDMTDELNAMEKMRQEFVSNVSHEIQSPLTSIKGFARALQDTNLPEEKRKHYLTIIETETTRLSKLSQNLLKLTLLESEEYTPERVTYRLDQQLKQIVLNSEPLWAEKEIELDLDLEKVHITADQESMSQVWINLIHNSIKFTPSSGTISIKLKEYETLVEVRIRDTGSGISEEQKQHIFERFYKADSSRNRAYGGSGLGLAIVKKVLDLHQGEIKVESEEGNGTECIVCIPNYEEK

Nc1ncnc2c1ncn2[C@@H]1O[C@H](COP(=O)(O)OP(=O)(O)OP(=O)(O)O)[C@@H](O)[C@H]1O [ATP]
autophosphorylation, SDS-PAGE and phosphorimager (HitS ICD): Both HKs autophosphorylate in the presence of ATP | autophosphorylation, SDS-PAGE and phosphorimager (HssS ICD): Both HKs autophosphorylate in the presence of ATP
